Data as given in US8293682B2, “Growth regulators for gramineous weeds” (Rikengreen Co., Ltd., priority 2008, dated 2012).

Tests used:
[1] = test system: annual bluegrass (Poa annua L.); assay: Test Example 2: count of ear emergence, poly-cup, applications at intervals / alternate application; assay type: in vivo
Protocol: At the initial stage of the ear emergence of annual bluegrass (Poa annua L.) grown in a poly-cup of 11 cm×11 cm, benzyladenine (Beanine for painting; made by Rikengreen; containing 1% benzyladenine) and/or ethephon (Ethrel 10 soluble concentrate; Nissan Chemical Industries; containing 10% ethephon) were diluted in a predetermined amount of water, and a spreader (Riken Sprayzer (registered trade mark); made by Rikengreen) was added so as to be 1/1,000-fold concentration; the respectively diluted solutions were applied by atomization at a dose and intervals as indicated in Table (scattered solution: 200 mL/m^2), and the number of emerged ears of annual bluegrass (Poa annua L.) in the cup was counted through time. The test was carried out serially. […] The symbol “●” in Table indicates the treatment with benzyladenine, “◯” the treatment with ethephon, and “−” untreated. Dose means the amount at a single application.

[2] = test system: annual bluegrass (Poa annua L.); assay: Test Example 3: number of emerged ears and leaves, poly-cup, two applications; assay type: in vivo; details: for Ear (number of emerged ears in the cup) / [Leaf] (number of leaves within 6 cm×6 cm): 2nd application after 29 days
Protocol: At the initial stage of the ear emergence of annual bluegrass (Poa annua L.) grown in a poly-cup of 11 cm×11 cm, benzyladenine (Beanine for painting; made by Rikengreen; containing 1% benzyladenine) and ethephon (Ethrel 10 soluble concentrate; Nissan Chemical Industries; containing 10% ethephon) were diluted in a predetermined amount of water, and a spreader (Riken Sprayzer (registered trade mark); made by Rikengreen) was added so as to be 1/1,000-fold concentration; the respectively diluted solutions were applied by atomization at a dose as indicated in Table (scattered solution: 200 mL/m^2), and after a lapse of 29 days, the 2nd application was carried out. Then, the number of emerged ears of annual bluegrass (Poa annua L.) in the cup was counted. Further, the number of leaves [Leaf] of annual bluegrass (Poa annua L.) was counted within the area of 6 cm×6 cm in the cup. The test was carried out serially. […] Dose means the amount at a single application.

[3] = test system: annual bluegrass (Poa annua L.); assay: Test Example 4: field test in bent green turf, emerged ear number; assay type: in vivo; details: applied Day 0 and after 30 days
Protocol: In a bent green turf where annual bluegrasses (Poa annua L.) were grown, a test zone of 1 m×1 m was provided. Benzyladenine (Beanine for painting; made by Rikengreen; containing 1% benzyladenine) and ethephon (Ethrel 10 soluble concentrate; Nissan Chemical Industries; containing 10% ethephon) were diluted in a predetermined amount of water, and a spreader (Riken Sprayzer (registered trade mark); made by Rikengreen) was added so as to be 1/1,000-fold concentration. The respectively diluted solutions were applied to each test zone at the first application (Day 0) at a dose as indicated in Table, and after a lapse of 30 days the second application was carried out. The amount of solution scattered was 100 mL/m^2 both in the first and second applications. The number of ear emergence of annual bluegrass (Poa annua L.) within the area of 10×10 cm was counted at regular intervals at 3 spots per zone. […] Dose means the amount at a single application.

[4] = test system: southern crabgrasses (Digitaria ciliaris Koel.); assay: Test Example 5: field test in Manilagrass turf, inhibitory effect for ear emergence; assay type: in vivo
Protocol: In a Manilagrass (Zoysia matrella) turf where southern crabgrasses (Digitaria ciliaris Koel.) were grown, a test zone of 1 m×1 m was provided. Benzyladenine (Beanine for painting; made by Rikengreen; containing 1% benzyladenine) and ethephon (Ethrel 10 soluble concentrate; Nissan Chemical Industries; containing 10% ethephon) were diluted in a predetermined amount of water. The respectively diluted solutions were applied to each test zone at the first application (Day 0) at a dose as indicated in Table, and after a lapse of 17 days the second application was carried out. The first application was conducted before the ear emergence of southern crabgrasses (Digitaria ciliaris Koel.). The amount of solution scattered was 150 mL/m^2 both in the first and second applications. The inhibitory effect for the ear emergence of southern crabgrasses (Digitaria ciliaris Koel.) within the area of 1 m×1 m was evaluated according to the standard as described in Table 7. […] The symbol “●” in Table 8 indicates the treatment with each agent, and “−” means untreated. Dose means the amount at a single application.

[5] = test system: lawn grasses; details: cited from earlier work
[6] = Day 46, Benzyladenine + Ethephon 2 + 0 mg a.i./m^2
[7] = Day 46, Benzyladenine + Ethephon 4 + 0 mg a.i./m^2

In the case of `c1ccc(CNc2ncnc3nc[nH]c23)cc1` [Benzyladenine, 6-benzylaminopurine], the “Count of ear emergence” value ([1]; Day 25, Benzyladenine 0.67 mg a.i./m^2 applied Day 0, 6, 12) is reported as 37, the “Count of ear emergence” value ([1]; Day 25, Benzyladenine 0.67 mg a.i./m^2 applied Day 6, 12) is reported as 34 and the “Count of ear emergence” value ([1]; Day 25, Benzyladenine 0.67 mg a.i./m^2 applied Day 12) is reported as 37. The “Count of ear emergence” value ([1]; Day 25, Benzyladenine 2 mg a.i./m^2 applied Day 0, 6, 12) was 20, the “Count of ear emergence” value ([1]; Day 25, Benzyladenine 2 mg a.i./m^2 applied Day 6, 12) was 14 and the “Count of ear emergence” value ([1]; Day 25, Benzyladenine 2 mg a.i./m^2 applied Day 12) was 22. The “Count of ear emergence” value ([1]; Day 33, Benzyladenine 0.67 mg a.i./m^2 applied Day 0, 6, 12) was 50, the “Count of ear emergence” value ([1]; Day 33, Benzyladenine 0.67 mg a.i./m^2 applied Day 6, 12) was 24 and the “Count of ear emergence” value ([1]; Day 33, Benzyladenine 0.67 mg a.i./m^2 applied Day 12) was 28. The “Count of ear emergence” value ([1]; Day 33, Benzyladenine 2 mg a.i./m^2 applied Day 0, 6, 12) was 26, the “Count of ear emergence” value ([1]; Day 33, Benzyladenine 2 mg a.i./m^2 applied Day 6, 12) was 15 and the “Count of ear emergence” value ([1]; Day 33, Benzyladenine 2 mg a.i./m^2 applied Day 12) was 23. For the same compound, the “Ear (number of emerged ears in the cup)” value ([2]; Day 23, Benzyladenine + Ethephon 2 + 0 mg a.i./m^2) was 12, the “Ear (number of emerged ears in the cup)” value ([2]; Day 23, Benzyladenine + Ethephon 4 + 0 mg a.i./m^2) was 2 and the “Ear (number of emerged ears in the cup)” value [2, 6] was 54. The “[Leaf] (number of leaves within 6 cm×6 cm)” value [2, 6] was “[105]”, the “Ear (number of emerged ears in the cup)” value [2, 7] was 55 and the “[Leaf] (number of leaves within 6 cm×6 cm)” value [2, 7] was “[108]”. For the same compound, the “Ear (number of emerged ears in the cup)” value ([2]; Day 53, Benzyladenine + Ethephon 2 + 0 mg a.i./m^2) was 43, the “Ear (number of emerged ears in the cup)” value ([2]; Day 53, Benzyladenine + Ethephon 4 + 0 mg a.i./m^2) was 48 and the “inhibition of ear emergence (summary in words)” value ([2]; Test Example 3) was “strongly inhibits the ear emergence”. For the same compound, the “number of leaves (bud number) (summary in words)” value ([2]; Test Example 3) was “increases the number of leaves”, the “Ear (mean emerged ear number within 10×10 cm)” value ([3]; Day 22, Ethephon 0, Benzyladenine 4 mg a.i./m^2) was 62.3 and the “Ear (mean emerged ear number within 10×10 cm)” value ([3]; Day 22, Ethephon 0, Benzyladenine 8 mg a.i./m^2) was 34.3. The “Ear (mean emerged ear number within 10×10 cm)” value ([3]; Day 22, Ethephon 0, Benzyladenine 12 mg a.i./m^2) was 27.0, the “Ear (mean emerged ear number within 10×10 cm)” value ([3]; Day 41, Ethephon 0, Benzyladenine 4 mg a.i./m^2) was 150.3 and the “Ear (mean emerged ear number within 10×10 cm)” value ([3]; Day 41, Ethephon 0, Benzyladenine 8 mg a.i./m^2) was 59.7. The “Ear (mean emerged ear number within 10×10 cm)” value ([3]; Day 41, Ethephon 0, Benzyladenine 12 mg a.i./m^2) was 32.7, the “Ear (mean emerged ear number within 10×10 cm)” value ([3]; Day 61, Ethephon 0, Benzyladenine 4 mg a.i./m^2) was 107.0 and the “Ear (mean emerged ear number within 10×10 cm)” value ([3]; Day 61, Ethephon 0, Benzyladenine 8 mg a.i./m^2) was 53.0. The “Ear (mean emerged ear number within 10×10 cm)” value ([3]; Day 61, Ethephon 0, Benzyladenine 12 mg a.i./m^2) was 41.0, the “Evaluation: index of inhibitory effect for ear emergence” value (from here on “Evaluation: index of inhibitory effect”) ([4]; Day 18, Benzyladenine 2.5 mg a.i./m^2, applied Day 0) was 0 (0% or more-less than 10%) and the “Evaluation: index of inhibitory effect” value ([4]; Day 18, Benzyladenine 5 mg a.i./m^2, applied Day 0) was 0 (0% or more-less than 10%). For the same compound, the “Evaluation: index of inhibitory effect” value ([4]; Day 18, Benzyladenine 10 mg a.i./m^2, applied Day 0) was 2 (20% or more-less than 30%), the “Evaluation: index of inhibitory effect” value ([4]; Day 18, Benzyladenine 15 mg a.i./m^2, applied Day 0) was 10 (100%) and the “Evaluation: index of inhibitory effect” value ([4]; Day 26, Benzyladenine 2.5 mg a.i./m^2, applied Day 0) was 0 (0% or more-less than 10%). For the same compound, the “Evaluation: index of inhibitory effect” value ([4]; Day 26, Benzyladenine 2.5 mg a.i./m^2, applied Day 0 and Day 17) was 1 (10% or more-less than 20%), the “Evaluation: index of inhibitory effect” value ([4]; Day 26, Benzyladenine 5 mg a.i./m^2, applied Day 0) was 0 (0% or more-less than 10%) and the “Evaluation: index of inhibitory effect” value ([4]; Day 26, Benzyladenine 5 mg a.i./m^2, applied Day 0 and Day 17) was 2 (20% or more-less than 30%). The “Evaluation: index of inhibitory effect” value ([4]; Day 26, Benzyladenine 10 mg a.i./m^2, applied Day 0) was 2 (20% or more-less than 30%), the “Evaluation: index of inhibitory effect” value ([4]; Day 26, Benzyladenine 10 mg a.i./m^2, applied Day 0 and Day 17) was 6 (60% or more-less than 70%) and the “Evaluation: index of inhibitory effect” value ([4]; Day 26, Benzyladenine 15 mg a.i./m^2, applied Day 0) was 9 (90% or more-less than 100%). The “Evaluation: index of inhibitory effect” value ([4]; Day 26, Benzyladenine 15 mg a.i./m^2, applied Day 0 and Day 17) was 10 (100%), the “Evaluation: index of inhibitory effect” value ([4]; Day 33, Benzyladenine 2.5 mg a.i./m^2, applied Day 0) was 0 (0% or more-less than 10%) and the “Evaluation: index of inhibitory effect” value ([4]; Day 33, Benzyladenine 2.5 mg a.i./m^2, applied Day 0 and Day 17) was 3 (30% or more-less than 40%). The “Evaluation: index of inhibitory effect” value ([4]; Day 33, Benzyladenine 5 mg a.i./m^2, applied Day 0) was 1 (10% or more-less than 20%), the “Evaluation: index of inhibitory effect” value ([4]; Day 33, Benzyladenine 5 mg a.i./m^2, applied Day 0 and Day 17) was 3 (30% or more-less than 40%) and the “Evaluation: index of inhibitory effect” value ([4]; Day 33, Benzyladenine 10 mg a.i./m^2, applied Day 0) was 5 (50% or more-less than 60%). For the same compound, the “Evaluation: index of inhibitory effect” value ([4]; Day 33, Benzyladenine 10 mg a.i./m^2, applied Day 0 and Day 17) was 7 (70% or more-less than 80%), the “Evaluation: index of inhibitory effect” value ([4]; Day 33, Benzyladenine 15 mg a.i./m^2, applied Day 0) was 7 (70% or more-less than 80%) and the “Evaluation: index of inhibitory effect” value ([4]; Day 33, Benzyladenine 15 mg a.i./m^2, applied Day 0 and Day 17) was 8 (80% or more-less than 90%). The “Evaluation: index of inhibitory effect” value ([4]; Day 41, Benzyladenine 2.5 mg a.i./m^2, applied Day 0) was 0 (0% or more-less than 10%), the “Evaluation: index of inhibitory effect” value ([4]; Day 41, Benzyladenine 2.5 mg a.i./m^2, applied Day 0 and Day 17) was 1 (10% or more-less than 20%) and the “Evaluation: index of inhibitory effect” value ([4]; Day 41, Benzyladenine 5 mg a.i./m^2, applied Day 0) was 2 (20% or more-less than 30%). For the same compound, the “Evaluation: index of inhibitory effect” value ([4]; Day 41, Benzyladenine 5 mg a.i./m^2, applied Day 0 and Day 17) was 5 (50% or more-less than 60%), the “Evaluation: index of inhibitory effect” value ([4]; Day 41, Benzyladenine 10 mg a.i./m^2, applied Day 0) was 2 (20% or more-less than 30%) and the “Evaluation: index of inhibitory effect” value ([4]; Day 41, Benzyladenine 10 mg a.i./m^2, applied Day 0 and Day 17) was 6 (60% or more-less than 70%). The “Evaluation: index of inhibitory effect” value ([4]; Day 41, Benzyladenine 15 mg a.i./m^2, applied Day 0) was 4 (40% or more-less than 50%), the “Evaluation: index of inhibitory effect” value ([4]; Day 41, Benzyladenine 15 mg a.i./m^2, applied Day 0 and Day 17) was 8 (80% or more-less than 90%) and the “rooting of lawn grasses” value ([5]; Non-patent document 1) was “effect for accelerating the rooting of lawn grasses”. The “growth of lawn grasses” value ([5]; Patent document 1) was “effect for accelerating the growth of lawn grasses”.
